The structures appear in SMILES notation. Where two headings read alike, the source gives them in different places.

Our source for the Ki and inhibition values is US20110312956A1, “ARYLINDENOPYRIMIDINES WITH REDUCED hERG CHANNEL BINDING” (priority 2010, published 2011).

Data set [1] has as its target T1, human A2a adenosine receptor (Homo sapiens, UniProt P29274).
T1 construct: purchased PerkinElmer RB-HA2a; host or cells: HEK293 cell plasma membranes
As to the kind of experiment: Ligand binding assay for adenosine A2a receptor ([3H]CGS21680, HEK293 plasma membrane).

For the next data set, the target named is T2, hERG (Homo sapiens, UniProt Q12809).
T2 construct: expressed in transfected cells; host or cells: HEK293 cells, stably transfected; membranes used
The data set can be described thus: hERG channel binding assay ([3H]astemizole displacement, HEK293 membranes). Conditions: probe [3H]astemizole, at 10 μM, read-out: hERG binding (percent inhibition of [3H]astemizole binding). On the procedure:
(§1) A hERG binding assay is a primary screening method used to evaluate potential activity of a compound against the hERG potassium channel. The affinity of a compound for the hERG channel is measured in vitro by examining displacement of tritiated-[^3H]astemizole, a high affinity hERG channel ligand. In this assay, membranes from HEK293 cells stably transfected with the human hERG channel cDNA are incubated with a range of concentrations of each test compound, vehicle (10% DMSO), or a positive control and [^3H]astemizole.
After a 1-hr incubation, the membranes are harvested onto GF/B filters, the filters dried and the radioactivity is measured. For each test compound, percent inhibition of [^3H]astemizole binding is calculated relative to control binding and IC50 values determined by linear regression. Each assay includes a positive control (i.e., Cisapride) that is tested in parallel with test compounds. At present, there is no gold standard preclinical test available to predict QT prolongation in humans. Therefore to assess potential cardiotoxicity, cardiovascular effects are evaluated preclinically in several different tests including the hERG channel binding assay.
hERG Channel Binding Assay
In the hERG channel binding assay, the ability of test compounds to displace ^3H-astemizole (a high affinity hERG channel ligand) is measured.
as §1, with “[^3H]astemizole. After a 1-hr incubation, the membranes are harvested onto GF/B filters, the filters dried and the radioactivity is measured.” for “[^3H]astemizole.”
For each test compound, percent inhibition of [^3H]astemizole binding is calculated relative to control binding and IC50 values determined by linear regression. Each assay includes a positive control (i.e., Cisapride) that is tested in parallel with test compounds.
On the technique in general: The hERG channel carries a current that helps repolarise heart muscle cells.

Setting [2] is: radioligand [3H]CGS21680, read-out: Ki A2a binding.

T2 sequence (Q12809 whole entry): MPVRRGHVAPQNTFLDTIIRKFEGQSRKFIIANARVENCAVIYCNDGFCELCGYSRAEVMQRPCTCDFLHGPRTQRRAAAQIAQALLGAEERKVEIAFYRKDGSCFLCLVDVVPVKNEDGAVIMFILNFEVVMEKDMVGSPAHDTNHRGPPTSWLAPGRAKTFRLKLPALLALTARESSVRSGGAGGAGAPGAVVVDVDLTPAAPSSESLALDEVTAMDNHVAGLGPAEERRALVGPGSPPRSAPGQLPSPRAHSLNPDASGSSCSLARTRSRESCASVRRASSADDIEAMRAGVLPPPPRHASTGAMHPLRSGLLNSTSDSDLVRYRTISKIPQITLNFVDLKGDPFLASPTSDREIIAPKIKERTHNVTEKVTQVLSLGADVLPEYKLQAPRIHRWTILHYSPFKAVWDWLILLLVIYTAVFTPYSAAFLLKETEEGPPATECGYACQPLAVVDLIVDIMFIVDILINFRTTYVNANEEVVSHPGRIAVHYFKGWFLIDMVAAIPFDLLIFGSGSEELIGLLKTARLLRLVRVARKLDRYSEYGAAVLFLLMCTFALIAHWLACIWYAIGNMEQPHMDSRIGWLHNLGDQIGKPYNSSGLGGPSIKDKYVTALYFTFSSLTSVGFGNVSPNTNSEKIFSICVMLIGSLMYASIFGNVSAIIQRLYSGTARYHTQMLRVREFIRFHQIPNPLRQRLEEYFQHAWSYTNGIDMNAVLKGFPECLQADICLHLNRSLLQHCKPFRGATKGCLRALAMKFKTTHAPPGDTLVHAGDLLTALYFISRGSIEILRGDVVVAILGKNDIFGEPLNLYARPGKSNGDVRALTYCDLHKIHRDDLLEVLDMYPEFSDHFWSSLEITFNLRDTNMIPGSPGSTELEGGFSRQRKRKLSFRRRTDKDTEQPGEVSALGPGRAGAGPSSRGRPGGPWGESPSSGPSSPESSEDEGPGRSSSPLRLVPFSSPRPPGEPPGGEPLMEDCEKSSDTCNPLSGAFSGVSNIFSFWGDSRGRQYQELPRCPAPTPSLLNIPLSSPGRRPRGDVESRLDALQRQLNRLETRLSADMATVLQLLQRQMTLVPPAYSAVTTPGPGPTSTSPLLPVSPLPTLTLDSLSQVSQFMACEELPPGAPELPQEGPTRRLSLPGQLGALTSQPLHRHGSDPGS
T1 sequence (P29274 whole entry): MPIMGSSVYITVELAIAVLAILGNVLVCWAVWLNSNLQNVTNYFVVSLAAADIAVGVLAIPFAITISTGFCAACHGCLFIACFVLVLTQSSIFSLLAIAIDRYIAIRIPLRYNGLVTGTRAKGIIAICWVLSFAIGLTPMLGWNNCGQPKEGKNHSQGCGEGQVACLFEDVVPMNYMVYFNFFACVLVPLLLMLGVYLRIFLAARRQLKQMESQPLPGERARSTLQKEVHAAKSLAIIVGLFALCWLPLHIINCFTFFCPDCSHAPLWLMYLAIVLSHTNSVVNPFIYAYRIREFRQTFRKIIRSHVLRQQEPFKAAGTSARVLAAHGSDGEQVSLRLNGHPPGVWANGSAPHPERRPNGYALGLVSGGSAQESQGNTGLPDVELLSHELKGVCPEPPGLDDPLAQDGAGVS

Take `Nc1nc(-c2ccccc2)c2c(n1)-c1cc(CN3CCC(O)CC3)ccc1C2=O` [Compound 5]: the Ki in data set [1] (setting [2]) amounted to 5.8 nM. For the same compound, on hERG, the inhibition at 1 h, 10 µM is 26.2%.
For `Nc1nc(-c2ccccc2)c2c(n1)-c1cc(CN3CCC(=O)CC3)ccc1C2=O` [Compound 3], in that order: 9.4 nM and 13.8%.
Compound `Nc1nc(-c2ccccc2)c2c(n1)-c1cc(CNCc3ccccn3)ccc1C2=O` [Compound 2] gave an inhibitory constant (Ki) in data set [1] of 10.2 nM. In addition, on hERG, the inhibition at 1 h, 10 µM came to 34.5%.
With `Nc1nc(-c2ccccc2)c2c(n1)-c1cc(CN3CCOCC3)ccc1C2=O` [Compound 6], the Ki in data set [1] (setting [2]) was 5.39 nM. Moreover, the inhibition at 1 h, 10 µM at hERG was -12.5%.
For `Nc1nc(-c2ccccc2)c2c(n1)-c1cc(CN3CCCC3)ccc1C2=O` [Compound 1], in that order: 6.69 nM and 1.4%.
The matching figures for `Nc1nc(-c2ccccc2)c2c(n1)-c1cc(CN3CCC(O)C3)ccc1C2=O` (stereo not drawn) [Compound 4]: 7.9 nM and 27.8%.

The Ki is the equilibrium dissociation constant of an inhibitor or competing ligand from its target. As a reminder, the inhibition is the change of the read-out against control, counted positive when it falls.
